Results taken from patent US9534221B2, “Targeting the steroidogenic pathway for treating and/or preventing allergic diseases” (National Jewish Health, priority 2013, dated 2017).

How the values were obtained:
[1] = tested on: T-bet and GATA3 expression; assay: Quantitative RT-PCR of T-bet and GATA3 in CD8+ T cells; assay type: cell-based, mouse; conditions: CD8+ T cells in IL-2 or IL-2+IL-4, untreated vs 500 μM AMG
Procedure: CD8^+ effector memory T cells were generated in vitro as previously described (Miyahara, N. et al. J. Immunol. 172, 2549-2558 (2004); Miyahara, N. et al. J. Immunol. 174, 4979-4984 (2005)). In brief, mononuclear cells (MNCs) were processed from the spleens of OT-1 mice followed by stimulation of 1 μg/ml SIINFEKL peptide (SEQ ID NO:1) was used to stimulate cells for 1.5 hours. Two days after culture, living cells were re-isolated using histopaque and cultured in complete RPMI 1640 medium that contained recombinant mouse IL-2 (20 ng/ml) (R&D, Minneapolis, Minn.) or IL-2+IL-4 (20 ng/ml) (Peprotech, Rocky Hill, N.J.). For some experiments, AMG was added into the medium together with IL-2 or IL-2+IL-4. Medium with cytokines was changed every day for a further 4 days. The cells were then re-stimulated with 1 μg/ml SIINFEKL (SEQ ID NO:1) in medium containing 2 μM monensin (Calbiochem, La Jolla, Calif.) for 4 hours. Total RNA was extracted from 5×10^6 differentiated CD8^+ T cells using the RNeasy Mini kit (Qiagen, Valencia, Calif.). 1 μg of total RNA was converted into cDNA using iScript cDNA Synthesis kit (Bio-Rad, Hercules, Calif.). […] Fold-changes were determined using the 2^−ΔΔCt method, with normalization to expression of mouse GAPDH.

[2] = tested on: OVA-sensitized CD8-deficient mice; assay: Secondary allergen challenge model with adoptive transfer of CD8+ T cells; assay type: in vivo, mouse
Procedure: The experimental protocol for sensitization and challenge to OVA was as described previously (Oka, H. et al. Cell. Immunol. 206, 7-15 (2000); Sundrud, M. S, and Nolan, M. A. Curr. Opin. Immunol. 22, 286-292 (2010)), with some modification. CD8-deficient mice were sensitized with 20 μg of OVA (Calbiochem, La Jolla, Calif.) emulsified in 2.25 mg of alum (AlumImuject; Pierce, Rockford, Ill.) on days 0 and 14 by intraperitoneal injection. Mice were challenged with 0.2% OVA for 20 minutes on days 21, 22, and 23 using an ultrasonic nebulizer (model NE-U07; Omron Healthcare, Kyoto, J P). […] Two hours after transfer, mice were challenged (secondary) with 1% OVA for 20 minutes. Airway function was measured and samples were collected on day 38. Airway function was assessed as described previously (Oka, H. et al. Cell. Immunol. 206, 7-15 (2000); Sundrud, M. S, and Nolan, M. A. Curr. Opin. Immunol. 22, 286-292 (2010)) by measuring changes in airway resistance (RL) in response to increasing doses of inhaled methacholine (Sigma, St. Louis, Mo.). Data were presented as percentage change from the baseline RL values after saline inhalation. […] After measurement of AHR, lungs were lavaged via the tracheal tube with 1 ml of HBSS. The supernatants were collected and IL-4, IL-5, and IL-13 (eBioscience, San Diego, Calif.) levels were measured by ELISA as described previously. Total leukocyte numbers were counted and differentiated as described previously (Oka, H. et al. Cell. Immunol. 206, 7-15 (2000); Sundrud, M. S, and Nolan, M. A. Curr. Opin. Immunol. 22, 286-292 (2010)). Mouse lungs were isolated and fixed in 10% formalin, then embedded in paraffin and cut into 5-μm thick tissue sections. Sections were stained with periodic acid-Schiff (PAS) and mucus-containing cells were quantitated as previously described (Oka, H. et al. Cell. Immunol. 206, 7-15 (2000); Sundrud, M. S, and Nolan, M. A. Curr. Opin. Immunol. 22, 286-292 (2010)). For some experiments, lung tissue expression of Cyp11a1 was identified by immunohistochemistry staining using anti-human Cyp11a1 antibody.

[3] = recipients of AMG-treated vs untreated CD8+ T cells
[4] = recipients of CD8+ T cells pretreated with AMG vs untreated cells

CCC1(c2ccc(N)cc2)CCC(=O)NC1=O (stereo not shown) [AMG, aminoglutethimide]
GATA3 expression [1]: no significant differences
T-bet expression [1]: no significant differences
Cyp11a1-positive cells in the lung ([2]; recipients of AMG-treated cells): few Cyp11a1-positive cells
IL-4 level in BAL fluid [2, 3]: significantly lower
IL-5 level in BAL fluid [2, 3]: significantly lower
IL-13 level in BAL fluid [2, 3]: significantly lower
Lung inflammation (histology) [2, 4]: less inflammation
Numbers of PAS+ mucus-containing goblet cells in lung [2, 4]: significantly decreased
AHR (changes in airway resistance RL) ([2]; transfer of 5×10^6 CD8+ T cells differentiated in IL-2 with AMG (500 μM)): failed to restore AHR or airway inflammation
Airway inflammation (cell composition in BAL fluid) ([2]; transfer of CD8+ T cells differentiated in IL-2 with AMG (500 μM)): failed to restore AHR or airway inflammation
